Measured values from article PMC10800023 (Human Molecular Genetics, 2023).

Experiments:
P-gp (MDR1) = assay: MDR1-MDCK permeability / P-gp efflux assay; details: MDCK-MDR1, pH 7.4
Procedure: (§1) To measure transport by P-gp, Madin-Darby canine kidney (MDCK) cells that had been transfected with the human P-gp (MDR1) gene were plated in a Transwell plate and cultured until polarized. MDCK cells that are not transfected with human P-gp were used as a control. Compounds were added to either the apical or the basolateral side of the cells, and transport across the membrane was measured.
(§2) Testing for permeability and MDR1 substrate assessment was done in MDCK cells transfected to overexpress human MDR1 gene that encodes efflux transporter protein (P-gp). […] Briefly, cells were maintained in Dulbecco’s modified Eagle medium (DMEM) with 10% fetal bovine serum and 1% penicillin/streptomycin in a humidified incubator at 37°C with 5% CO2. The study was performed by Absorption Systems (now Pharmaron; Exton, PA). The MDR1-MDCK and MDCK control cell lines were seeded into 12-well plates for 7 days. Integrity of monolayer tight junctions was monitored preincubation by transepithelial electrical resistance (TEER) measurement. […] The samples were withdrawn at t = 0 and 60 min from the receiver and donor compartments. Compound levels were measured by LC/MS–MS. Additionally, post-assay, cell monolayer integrity was checked with Lucifer Yellow permeability measurement. Transport assay low- and high-permeability control compounds were run in parallel for assay validation. Papp values were calculated considering compound concentrations across the monolayer and cell surface area. Efflux ratios were calculated based on Papp B > A over Papp A > B. The difference between the MDR1-MDCK and the MDCK cell efflux ratios was also calculated. […] Compounds were classified by Absorption Systems/Pharmaron as follows: […]

human P-gp (MDR1) = assay: MDR1-MDCK permeability / P-gp efflux assay; details: for Differences between ratios: MDR1-MDCK minus MDCK efflux ratio; for brain penetration classification: 1 and 10 μM, from Papp (A-to-B) and efflux ratio
Procedure: as §1, §2

[1] = MDCK control cell permeability (not transfected with human P-gp); details: dog, pH 7.4
Procedure: as §1, §2

B10-mdx mice = assay: Four-limb grip strength (Study 2); type: in vivo, mouse; details: 4 weeks of treatment, not complete, not dose dependent
Procedure: After 4 weeks of treatment, muscle strength was evaluated using a grip strength meter.
Study 2: The goal of the second study was to evaluate corticosteroid side effects and efficacy in a longer study (4 months). After 28 days of dosing, mice were tested for depression-like behavior using a measure of corticosteroid-induced depression (FST followed by TST). Muscle function was tested via grip strength. Tests for depression and for grip-strength were done in a blinded manner. After 4 months, mice were euthanized, and tissues were collected. Bone from whole left leg was collected for micro-CT analysis. The number of animals per group was as follows: WT, n = 16; B10-mdx, n = 15; corticosteroid-treated groups, n = 8–10.
A four-limb grip strength meter from Bioseb was used to determine the maximal peak force (g) developed by the mouse when the examiner tried to pull it out of a specially designed grid for mice (Bioseb, BIO-GS3 & BIO-GRIPGS). The examiner was blinded, and a total of 5 measurements were applied to each mouse, 1–2 min between measurements. The average of the 5 values was used for subsequent calculations.

[2] = DBA/2 J, mouse, in vivo
Procedure: (§3) The brain-to-plasma ratio was then calculated using the area under the curve (AUC) for brain exposure and the AUC for plasma exposure.

[3] = Published PK data in patients; details: in vivo, oral, human, 0.75 mg/kg, extrapolated assuming linear increase from the lower dose
Excerpt: ^a Conklin […] JM, Hoffman EP, Jusko WJ, Mavroudis PD, Schwartz BD, […] LJ, Smith EC, Mah JK, Guglieri M, Nevo Y, Kuntz N, McDonald CM, Tulinius M, Ryan MM, Webster R, Castro D, Finkel RS, Smith AL, Morgenroth […], Jaros M, Shale […] JM, […], Ward […], Cornish MR, Clemens PR. […] Epub 2018 Sep 13. PMID: 30219580; PMCID: PMC6218284. […] Bashar T, Apu […]. […] Dose Response. 2018 Jul 25;16(3):1559325818783932. doi: 10.1177/1559325818783932. PMID: 30083083; PMCID: PMC6073839. ^c Assumed linear increase in AUC and Cmax from 0.25 to 0.75 mg/kg. This may be an overestimate. However, there is support for linearity in Al-Habet S, Rogers HJ. Pharmacokinetics of intravenous and oral prednisolone. Br J Clin Pharmacol. 1980 Nov;10(5):503-8. doi: 10.1111/j.1365-2125.1980.tb01796.x. PMID: 7437263; PMCID: PMC1430141. ^d https://www.accessdata.fda.gov/drugsatfda_docs/nda/2017/208684,208685[…]

MDCK cells = assay: MDCK control cell permeability (not transfected with human P-gp); details: 1 μM
Procedure: as §1, §2

[4] = cited from earlier work
in vivo [5] = details: DBA/2 J, mouse, plasma, po
Procedure: as §3

in vivo [6] = details: C57BL/10, mouse, oral; for Kp: brain/plasma; for AUC / Cmax: plasma
C57BL/6 mice = assay: RT-qPCR of brain mRNA in WT mice (Study 3); details: daily for 35 days, prednisolone 15 mg/kg or vamorolone 45 mg/kg
Procedure: RNA concentration was measured by using Cytation 5 (BioTek).

[7] = Pharmacokinetics and biodistribution in C57BL/10 mice
[8] = Pharmacokinetics and brain/plasma biodistribution in WT DBA/2 J mice
Procedure: as §3

[9] = 30 mg/kg oral gavage, DBA/2 J mice

## CC(=O)OCC(=O)[C@@]12N=C(C)O[C@@H]1C[C@H]1[C@@H]3CCC4=CC(=O)C=C[C@]4(C)[C@H]3[C@@H](O)C[C@@]12C [Deflazacort]
P-gp (MDR1)
  Papp at 60 min: < 3 ×10⁻⁶ cm/s
  efflux ratio at 60 min, 1 μM: 60.2
  efflux ratio at 60 min, 10 μM: 58.4
Human P-gp (MDR1); 1 μM
  Basolateral to Apical MDR1-MDCK: 62.60 10 ^ −6 cm/s
  Differences between ratios: 59
Human P-gp (MDR1); 10 μM
  Apical to Basolateral MDR1-MDCK: 1.07 10 ^ −6 cm/s
  Differences between ratios: 57
Human P-gp (MDR1)
  brain penetration classification: low
Human P-gp (MDR1); dog, MDCK-MDR1, pH 7.4
  Papp A→B at 60 min, 1 μM: 1.04 ×10⁻⁶ cm/s
  Papp B→A at 60 min, 10 μM: 62.6 ×10⁻⁶ cm/s
[1]
  Papp A→B at 60 min, 1 μM: 12.3 ×10⁻⁶ cm/s
  Papp A→B at 60 min, 10 μM: 6.66 ×10⁻⁶ cm/s
  Papp B→A at 60 min, 1 μM: 11.6 ×10⁻⁶ cm/s
  Papp B→A at 60 min, 10 μM: 6.7 ×10⁻⁶ cm/s
  efflux ratio at 60 min, 1 μM: 0.949
  efflux ratio at 60 min, 10 μM: 1.01
B10-mdx mice
  grip strength: showed some protection from loss of grip strength
[2]
  predicted AUC in mice: 446 ng·h/mL
  predicted Cmax in mice: 267.5 ng/mL

## C[C@]12C=CC(=O)C=C1CC[C@@H]1[C@@H]2[C@@H](O)C[C@@]2(C)[C@H]1CC[C@]2(O)C(=O)CO [Prednisolone]
[3]
  Cmax: ~705 ng/mL
[3]; read-out: AUC (Day 1)
  AUC: ~7070 ng·h/mL

## C[C@@H]1C[C@H]2[C@@H]3CCC4=CC(=O)C=C[C@]4(C)C3=CC[C@]2(C)[C@@]1(O)C(=O)CO [Vamorolone]
P-gp (MDR1)
  Papp at 60 min: > 3 ×10⁻⁶ cm/s
  efflux ratio at 60 min, 1 μM: 6.84
  efflux ratio at 60 min, 10 μM: 6.42
Human P-gp (MDR1); 1 μM
  Differences between ratios: 6
Human P-gp (MDR1); 10 μM
  Apical to Basolateral MDR1-MDCK: 8.73 10 ^ −6 cm/s
  Differences between ratios: 6
Human P-gp (MDR1)
  brain penetration classification: moderate
Human P-gp (MDR1); dog, MDCK-MDR1, pH 7.4
  Papp A→B at 60 min, 1 μM: 7.99 ×10⁻⁶ cm/s
  Papp B→A at 60 min, 1 μM: 54.7 ×10⁻⁶ cm/s
  Papp B→A at 60 min, 10 μM: 56.1 ×10⁻⁶ cm/s
[1]
  Papp A→B at 60 min, 10 μM: 33.4 ×10⁻⁶ cm/s
  Papp B→A at 60 min, 1 μM: 25.2 ×10⁻⁶ cm/s
  Papp B→A at 60 min, 10 μM: 22.7 ×10⁻⁶ cm/s
  efflux ratio at 60 min, 1 μM: 0.755
  efflux ratio at 60 min, 10 μM: 0.746
MDCK cells
  Apical to Basolateral MDCK: 33.4 10 ^ −6 cm/s
[4]; Phase 2A, subjects with DMD, 6 mg/kg/day, 14 days of dosing
  reduction of serum osteocalcin levels: ~ 33%
[4]; Phase 2b 24-week study in DMD boys, 6 mg/kg
  reduction of osteocalcin levels: 0.17%
In vivo [5]; 15 mg/kg
  AUC: 9350 ng·h/mL
  Cmax: 1980 ng/mL
In vivo [5]; 30 mg/kg
  AUC: 26600 ng·h/mL
  Cmax: 2700 ng/mL
In vivo [5]; 45 mg/kg
  AUC: 34100 ng·h/mL
  Cmax: 3470 ng/mL
In vivo [6]; 5 mg/kg
  Kp: 0.5
  AUC: 2850 ng·h/mL
  Cmax: 818 ng/mL
In vivo [6]; 30 mg/kg
  Kp: 0.46
  AUC: 33900 ng·h/mL
  Cmax: 8790 ng/mL
C57BL/6 mice
  Ddrd4 mRNA levels in the CNS: increased
  Fkbp5 mRNA levels in the CNS: increased
[7]; 5 mg/kg
  Brain AUC: 1418 hr∙ng/g of tissue
  Brain Cmax: 443 ng/g of tissue
  Brain/plasma ratio based on Cmax: 0.54
[7]; 30 mg/kg
  Brain AUC: 15538 hr∙ng/g of tissue
  Brain Cmax: 4402 ng/g of tissue
[8]; [9]
  Brain AUC: 8070 h∙ng/g of tissue
  Brain Cmax: 1825 ng/g of tissue
  Brain/plasma ratio based on AUC: ~0.30
  Brain/plasma ratio based on Cmax: ~0.68
[8]; 15, 30, and 45 mg/kg in mouse vs 6 mg/kg/day in human
  fold higher exposure in the mouse (based on Cmax) than human clinical exposure: 2–4 fold
[8]; mouse (DBA), 30 mg/kg
  Cmax: 2700 ng/mL
